# Measurements reported in publication PMC8230956, “Inhibition of the Human Hsc70 System by Small Ligands as a Potential Anticancer Approach” (Cancers, 2021).
# Where two headings read alike, the source gives them in different places.
# Assays:
# Hsc70 + DnaJB1 = target: T1, Hsc70 + DnaJB1 (Homo sapiens, UniProt P11142); assay: Reactivation of G6PDH aggregates by the binary chaperone mixture; assay type: biochemical; conditions: 2 µM Hsc70, 0.5 µM DnaJB1, 0.4 µM G6PDH aggregates; means ± SD of three experiments
# T1 construct: His6-SUMO (N, cleaved yes); made in house; host or cells: E. coli BL21 Rosetta
# Description: (§1) Subsequently, aggregates were stabilized for 30 min at 30 °C. The properties of these aggregates have been previously reported, and typically show a hydrodynamic radius of approximately 500–600 nm. Aggregates (0.4 µM final concentration) were added to samples containing 2 µM Hsc70 and 0.5 µM DnaJB1 in the absence or presence of 0.4 µM Apg2. […] A preincubation of the samples with compounds for 30 min at 30 °C was done prior to starting the reaction. The reaction was started with the addition of 2 mM ATP and the ATP-regeneration system (3 mM PEP and 20 ng/mL PK). Final sample volume was 100 µL. Reactivation was monitored at 30 °C for 180 min. At different times of the reaction, 5 µL of sample were added to 250 µL buffer containing 50 mM Tris-HCl pH 7.5, 50 mM KCl, 20 mM MgCl2, 10 mM DTT, 1 mM NADP^+, 2.5 mM G6P (Sigma-Aldrich). NADPH formation was measured recording the absorbance increase at 340 nm in a Synergy HTX plate reader (BioTek, Winooski, VT, USA) in transparent 96-well plates with flat bottom (Sarstedt, Newton, NC, USA) for 5 min. Reactivation percentages were calculated considering the slope of NADPH formation for native G6PDH as 100% activity. […] IC50 values were estimated with a sigmoidal dose-response ligand-binding equation.
# MeWo cells = assay: Cell viability assay (XTT or Presto Blue), MeWo; assay type: cell-based, human; conditions: increasing concentrations, different incubation times
# Source text: (§2) Cells grew in Dulbecco’s Modified Eagle Medium (DMEM) high glucose (Sigma-Aldrich) supplemented with heat-inactivated 10% fetal bovine serum (FBS) (HyClone™, GE Healthcare, IL, USA). […] Primary human melanocytes (human epidermal melanocytes, neonatal, light pigmented, HEMn-LP) were purchased from Invitrogen (Waltham, MA, USA, C-002-5C).
# (§3) Two colorimetric assays were used to study the cytotoxic effects of the selected compounds: the XTT Cell Proliferation Kit II (Roche) and Presto Blue™ Cell Viability Reagent (Invitrogen). Exponentially growing cell lines seeded at 20,000 cells/well in 96-well flat bottom plates (Sarstedt) were incubated overnight in 150 µL of the corresponding growth medium. The following day, the medium was replaced by fresh medium (150 µL) containing 1% FBS (except for melanocytes) and 0.9% DMSO in the presence or absence of different concentrations of compounds. A2058 and MeWo cells were treated with increasing compound concentrations for cell viability assays. […] Cell viability in plates treated with XTT was determined by reading the absorbance at 490 nm in a Synergy HTX plate reader (BioTek). […] In both cases, the absorbance of the medium was subtracted from cell-containing wells. Control values (without compounds but with 0.9% DMSO) were taken as 100% viability.
# A2058 cells = assay: Cell viability assay (XTT or Presto Blue), A2058; assay type: cell-based, human; conditions: for Effect on cell viability (toxicity), A2058: increasing concentrations, different incubation times
# Source text: as §2, §3
# Hsc70 + DnaJB1 + Apg2 = target: T2, Hsc70 + DnaJB1 + Apg2 (Homo sapiens, UniProt P11142+P34932); assay: Reactivation of G6PDH aggregates by the ternary chaperone mixture; assay type: biochemical
# T2 construct: His6-SUMO (N, cleaved yes); made in house; host or cells: E. coli BL21 Rosetta
# Description: as §1
# [1] = tested on: non-transformed cell lines; parameters: method as in PMID 19027770, PMID 17981006, PMID 18171263; conditions: cited from earlier work
# [2] = tested on: melanocytes (HEMn-LP non-malignant skin cells); assay: Cell viability assay (XTT or Presto Blue), primary melanocytes; assay type: cell-based, human; conditions: 20 µM, up to 12 h
# Source text: as §2, §3
# fibroblasts (MRC-5) = assay: Cell viability assay (XTT or Presto Blue), fibroblasts; assay type: cell-based, human; conditions: 20 µM, up to 12 h
# Source text: as §2, §3
# [3] = 2 µM Hsc70, 0.5 µM DnaJB1, 0.4 µM Apg2, 0.4 µM G6PDH aggregates, means ± SD of three experiments, read-out: IC50 G6PDH Reactivation Hsc70 + DnaJB1 + Apg2
# T2 sequence (P11142 whole entry): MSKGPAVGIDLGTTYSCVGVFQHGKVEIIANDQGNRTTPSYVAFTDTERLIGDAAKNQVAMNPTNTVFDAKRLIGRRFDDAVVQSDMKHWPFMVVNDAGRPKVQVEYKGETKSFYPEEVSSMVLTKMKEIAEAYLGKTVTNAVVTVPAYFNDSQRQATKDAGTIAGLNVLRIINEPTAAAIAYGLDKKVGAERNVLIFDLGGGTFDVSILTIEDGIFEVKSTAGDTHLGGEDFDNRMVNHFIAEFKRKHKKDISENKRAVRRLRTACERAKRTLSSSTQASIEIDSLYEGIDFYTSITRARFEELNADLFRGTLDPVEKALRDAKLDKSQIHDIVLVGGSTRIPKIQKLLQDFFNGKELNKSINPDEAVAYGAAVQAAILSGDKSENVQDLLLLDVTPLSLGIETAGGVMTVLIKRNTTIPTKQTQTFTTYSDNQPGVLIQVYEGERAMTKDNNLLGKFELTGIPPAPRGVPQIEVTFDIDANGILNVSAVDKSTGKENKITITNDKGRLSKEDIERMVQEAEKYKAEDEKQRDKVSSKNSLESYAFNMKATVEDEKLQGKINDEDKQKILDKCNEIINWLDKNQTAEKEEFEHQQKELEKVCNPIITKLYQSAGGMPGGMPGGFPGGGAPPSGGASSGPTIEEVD
# T2 sequence (P34932 whole entry): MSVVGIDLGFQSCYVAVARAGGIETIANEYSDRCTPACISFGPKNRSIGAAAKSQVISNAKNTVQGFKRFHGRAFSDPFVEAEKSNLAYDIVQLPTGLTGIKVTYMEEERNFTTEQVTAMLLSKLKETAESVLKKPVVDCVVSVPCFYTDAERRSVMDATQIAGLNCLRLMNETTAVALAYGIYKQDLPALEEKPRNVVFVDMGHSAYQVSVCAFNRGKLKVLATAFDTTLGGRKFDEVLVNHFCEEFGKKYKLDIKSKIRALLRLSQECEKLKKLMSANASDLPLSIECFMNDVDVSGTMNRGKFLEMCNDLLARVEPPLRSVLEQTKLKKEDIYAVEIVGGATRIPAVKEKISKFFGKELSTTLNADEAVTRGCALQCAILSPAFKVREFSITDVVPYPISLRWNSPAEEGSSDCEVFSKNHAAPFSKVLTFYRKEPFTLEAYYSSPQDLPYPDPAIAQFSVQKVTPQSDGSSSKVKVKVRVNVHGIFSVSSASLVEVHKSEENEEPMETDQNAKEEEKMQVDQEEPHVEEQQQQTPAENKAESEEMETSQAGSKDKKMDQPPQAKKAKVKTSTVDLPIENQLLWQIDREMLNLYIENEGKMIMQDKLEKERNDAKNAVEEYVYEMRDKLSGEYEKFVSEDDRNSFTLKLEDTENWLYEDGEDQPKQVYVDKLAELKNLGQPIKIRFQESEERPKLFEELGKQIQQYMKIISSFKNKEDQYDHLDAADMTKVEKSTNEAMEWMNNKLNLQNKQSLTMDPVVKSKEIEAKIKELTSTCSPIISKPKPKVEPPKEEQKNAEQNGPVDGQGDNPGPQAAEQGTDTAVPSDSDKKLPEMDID
# T1 sequence (P11142 whole entry): as the sequence (P11142 whole entry) above
Structure (SMILES),IC50 (Hsc70 + DnaJB1) [µM],"Effect on cell viability (toxicity), MeWo (MeWo cells)","Effect on cell viability (toxicity), A2058 (A2058 cells)",IC50 (Hsc70 + DnaJB1 + Apg2; [3]) [µM],Toxicity in non-transformed cell lines [1],Toxicity in melanocytes [2],Toxicity in fibroblasts (fibroblasts (MRC-5)),Fold lower toxic concentration in melanoma cell lines than IC50 for the isolated chaperone system (A2058 cells; melanoma cell lines (A2058 and MeWo) versus IC50 of the isolated chaperone system),IC50 (Hsc70 + DnaJB1 + Apg2) [µM]
"[H]/N=C(\N/C(=N/[H])NCCCCCCNC(=N)NC(=N)Nc1ccc(Cl)cc1)Nc1ccc(Cl)cc1 [Compound 1, (1E)-2-[6-[[amino-[(E)-[amino-(4-chloroanilino)methylidene]amino]methylidene]amino]hexyl]-1-[amino-(4-chloroanilino)methylidene]guanidine]",11.9 ± 0.2,Cell viability decreased,Cell viability decreased,14.5 ± 1.8,toxicity in several non-transformed cell lines,–,–,–,–
"Cl.O[C@@H](c1cc(C(F)(F)F)nc2c(C(F)(F)F)cccc12)[C@H]1CCCCN1 [Compound 5, (S)-[2,8-bis(trifluoromethyl)quinolin-4-yl]-[(2R)-piperidin-2-yl]methanol hydrochloride]",107 ± 7.5,Cell viability decreased,Cell viability decreased,97.3 ± 21.1,–,no toxicity was observed,no toxicity was observed,around 7 fold,–
CC=C(C)C(=O)OC1C(OC(C)=O)C2(CO)C(O)CC3(C)C(=CCC4C5(C)CCC(OC6OC(C(=O)O)C(OC7OC(CO)C(O)C(O)C7O)C(O)C6OC6OC(CO)C(O)C(O)C6O)C(C)(CO)C5CCC43C)C2CC1(C)C (centres unmarked) [Compound 4],37.3 ± 1.8,–,–,47 ± 5.6,–,–,–,–,–
"O=C(O)Cc1cc(I)c(Oc2ccc(O)c(I)c2)c(I)c1 [Compound 6, 2-[4-(4-hydroxy-3-iodophenoxy)-3,5-diiodophenyl]acetic acid]",–,no toxicity was observed,no toxicity was observed,–,–,–,–,–,–
"CCc1oc2ccccc2c1C(=O)c1cc(Br)c(O)c(Br)c1 [Compound 3, (3,5-dibromo-4-hydroxyphenyl)-(2-ethyl-1-benzofuran-3-yl)methanone]",10.1 ± 0.4,no toxicity was observed,no toxicity was observed,–,–,–,–,–,17.6 ± 0.1
